Laboratory results reported in ChEMBL document CHEMBL1201862, “PubChem BioAssay data set” (2004).
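Following 48 hours of exposure in 96-well plates, responses at five concentrations were used to interpolate endpoints linearly. GI50 is the concentration that inhibits growth by half.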 The source made the active and inactive calls. Cut-off read from the data, not from the text of the source: active = GI50 up to about 1.1 µM and inactive = higher.

Columns and labels:
Experiment in all cases: NCI tumour cell line growth inhibition, 48 h
[1] = system: SW-620
[2] = system: K562
[3] = system: OVCAR-8
[4] = system: BT-549
[5] = system: OVCAR-5
[6] = system: NCI/ADR-RES
[7] = system: COLO 205
[8] = system: UACC-257
[9] = system: SK-MEL-5
[10] = system: HOP-92
[11] = system: OVCAR-3
[12] = system: MDA-N
[13] = system: HOP-62
[14] = system: M14
[15] = system: CCRF-CEM
[16] = system: SK-MEL-2
[17] = system: KM12
[18] = system: PC-3
[19] = system: RXF 393
[20] = system: SR
[21] = system: CAKI-1
[22] = system: SNB-19
[23] = system: 786-0
[24] = system: TK-10
[25] = system: MDA-MB-435
[26] = system: HCT-116
[27] = system: MDA-MB-231
[28] = system: Hs-578T
[29] = system: NCI-H226
[30] = system: UACC-62
[31] = system: MOLT-4
[32] = system: RPMI-8226
[33] = system: T47D
[34] = system: SK-OV-3
[35] = system: Malme-3M
[36] = system: EKVX
[37] = system: A549
[38] = system: NCI-H23
[39] = system: SF-295
[40] = system: SF-268
[41] = system: IGROV-1
[42] = system: SF-539
[43] = system: OVCAR-4
[44] = system: U-251
[45] = system: SN12C
[46] = system: SK-MEL-28
[47] = system: MCF7
[48] = system: NCI-H522
[49] = system: HT-29
[50] = system: UO-31
[51] = system: ACHN
[52] = system: LOX IMVI
[53] = system: HCT-15
[54] = system: A498
[55] = system: DU-145
[56] = system: NCI-H460
[57] = system: HL-60
[58] = system: SNB-75
[59] = system: HCC 2998

## O=C(NCc1ccc(Cl)cc1)c1cc2sccc2nc1C(F)(F)F
[1]
  GI50: 54.2 µM (inactive)
[2]
  GI50: > 100 µM (inactive)
[3]
  GI50: 26.4 µM (inactive)
[4]
  GI50: 39.9 µM (inactive)
[5]
  GI50: > 100 µM (inactive)
[6]
  GI50: 39.1 µM (inactive)
[7]
  GI50: > 100 µM (inactive)
[8]
  GI50: 69 µM (inactive)
[9]
  GI50: 49.7 µM (inactive)
[10]
  GI50: 37.7 µM (inactive)
[11]
  GI50: 26.9 µM (inactive)
[12]
  GI50: > 100 µM (inactive)
[13]
  GI50: 22.3 µM (inactive)
[14]
  GI50: > 100 µM (inactive)
[15]
  GI50: > 100 µM (inactive)
[16]
  GI50: 50 µM (inactive)
[17]
  GI50: 87.1 µM (inactive)
[18]
  GI50: 48 µM (inactive)
[19]
  GI50: 24 µM (inactive)
[20]
  GI50: 39.9 µM (inactive)
[21]
  GI50: 31.7 µM (inactive)
[22]
  GI50: 22.5 µM (inactive)
[23]
  GI50: 18.2 µM (inactive)
[24]
  GI50: 33.7 µM (inactive)
[25]
  GI50: > 100 µM (inactive)
[26]
  GI50: 33.3 µM (inactive)
[27]
  GI50: 31.3 µM (inactive)
[28]
  GI50: 19.8 µM (inactive)
[29]
  GI50: 19.6 µM (inactive)
[30]
  GI50: 35.2 µM (inactive)
[31]
  GI50: > 100 µM (inactive)
[32]
  GI50: > 100 µM (inactive)
[33]
  GI50: > 100 µM (inactive)
[34]
  GI50: 34 µM (inactive)
[35]
  GI50: 42.3 µM (inactive)
[36]
  GI50: 34 µM (inactive)
[37]
  GI50: 34.2 µM (inactive)
[38]
  GI50: 45.5 µM (inactive)
[39]
  GI50: 28 µM (inactive)
[40]
  GI50: 24.2 µM (inactive)
[41]
  GI50: 29.6 µM (inactive)
[42]
  GI50: 27.7 µM (inactive)
[43]
  GI50: 19.8 µM (inactive)
[44]
  GI50: 18.9 µM (inactive)
[45]
  GI50: 44.8 µM (inactive)
[46]
  GI50: 55.7 µM (inactive)
[47]
  GI50: 61 µM (inactive)
[48]
  GI50: 29.7 µM (inactive)
[49]
  GI50: > 100 µM (inactive)
[50]
  GI50: 30.5 µM (inactive)
[51]
  GI50: 20.6 µM (inactive)

## Cc1cnc2cc(Cl)ccc2c1SCC(=O)O
[1]
  GI50: > 100 µM (inactive)
[2]
  GI50: > 100 µM (inactive)
[3]
  GI50: > 100 µM (inactive)
[4]
  GI50: > 100 µM (inactive)
[5]
  GI50: > 100 µM (inactive)
[6]
  GI50: > 100 µM (inactive)
[52]
  GI50: > 100 µM (inactive)
[8]
  GI50: > 100 µM (inactive)
[9]
  GI50: > 100 µM (inactive)
[53]
  GI50: > 100 µM
[10]
  GI50: > 100 µM (inactive)
[11]
  GI50: > 100 µM (inactive)
[12]
  GI50: > 100 µM (inactive)
[13]
  GI50: > 100 µM (inactive)
[14]
  GI50: > 100 µM (inactive)
[15]
  GI50: > 100 µM (inactive)
[16]
  GI50: > 100 µM (inactive)
[17]
  GI50: > 100 µM (inactive)
[18]
  GI50: > 100 µM (inactive)
[19]
  GI50: > 100 µM (inactive)
[54]
  GI50: > 100 µM (inactive)
[55]
  GI50: > 100 µM (inactive)
[20]
  GI50: > 100 µM (inactive)
[21]
  GI50: > 100 µM (inactive)
[56]
  GI50: > 100 µM (inactive)
[22]
  GI50: > 100 µM (inactive)
[23]
  GI50: > 100 µM (inactive)
[24]
  GI50: > 100 µM (inactive)
[25]
  GI50: > 100 µM (inactive)
[26]
  GI50: > 100 µM (inactive)
[27]
  GI50: > 100 µM (inactive)
[28]
  GI50: 93.5 µM (inactive)
[29]
  GI50: > 100 µM (inactive)
[30]
  GI50: > 100 µM (inactive)
[31]
  GI50: > 100 µM (inactive)
[32]
  GI50: > 100 µM (inactive)
[33]
  GI50: > 100 µM (inactive)
[35]
  GI50: > 100 µM (inactive)
[36]
  GI50: > 100 µM (inactive)
[37]
  GI50: > 100 µM (inactive)
[38]
  GI50: > 100 µM (inactive)
[39]
  GI50: > 100 µM (inactive)
[40]
  GI50: > 100 µM (inactive)
[41]
  GI50: > 100 µM (inactive)
[43]
  GI50: > 100 µM (inactive)
[44]
  GI50: > 100 µM (inactive)
[45]
  GI50: > 100 µM (inactive)
[46]
  GI50: > 100 µM (inactive)
[48]
  GI50: > 100 µM (inactive)
[49]
  GI50: > 100 µM (inactive)
[57]
  GI50: > 100 µM (inactive)
[50]
  GI50: > 100 µM (inactive)
[51]
  GI50: > 100 µM (inactive)

## COC(=O)C1=C(O)C(C(=O)OC)[C@]2(O)[C@@H](C(=O)OC)[C@H]1C[C@@H](c1ccccc1)[C@@H]2C(=O)OC (some centres undefined)
[58]
  GI50: 16.9 µM (inactive)
[2]
  GI50: 5.61 µM (inactive)
[4]
  GI50: 15.8 µM (inactive)
[5]
  GI50: 16 µM (inactive)
[52]
  GI50: 15.4 µM (inactive)
[8]
  GI50: 10.3 µM (inactive)
[53]
  GI50: 13.1 µM
[11]
  GI50: 13.8 µM (inactive)
[12]
  GI50: 5.01 µM (inactive)
[59]
  GI50: 14.2 µM (inactive)
[13]
  GI50: 20 µM (inactive)
[14]
  GI50: 10.8 µM (inactive)
[15]
  GI50: 5.42 µM (inactive)
[16]
  GI50: 13.9 µM (inactive)
[17]
  GI50: 11.7 µM (inactive)
[19]
  GI50: 5.08 µM (inactive)
[54]
  GI50: 17.2 µM (inactive)
[55]
  GI50: 11.9 µM (inactive)
[20]
  GI50: 4.17 µM (inactive)
[56]
  GI50: 14 µM (inactive)
[22]
  GI50: 24.3 µM (inactive)
[24]
  GI50: 23.7 µM (inactive)
[25]
  GI50: 7.71 µM (inactive)
[26]
  GI50: 6.98 µM (inactive)
[27]
  GI50: 16.1 µM (inactive)
[28]
  GI50: 17.2 µM (inactive)
[29]
  GI50: 18.6 µM (inactive)
[30]
  GI50: 11.9 µM (inactive)
[31]
  GI50: 11.6 µM (inactive)
[32]
  GI50: 9.73 µM (inactive)
[33]
  GI50: 27.6 µM (inactive)
[34]
  GI50: 17.4 µM (inactive)
[35]
  GI50: 18.2 µM (inactive)
[36]
  GI50: 17.5 µM (inactive)
[38]
  GI50: 15.2 µM (inactive)
[40]
  GI50: 1.96 µM (inactive)
[42]
  GI50: 12.6 µM (inactive)
[44]
  GI50: 16.1 µM (inactive)
[45]
  GI50: 15.7 µM (inactive)
[46]
  GI50: 20.9 µM (inactive)
[47]
  GI50: 5.93 µM (inactive)
[48]
  GI50: 6.71 µM (inactive)
[49]
  GI50: 16.3 µM (inactive)
[57]
  GI50: 19.6 µM (inactive)
[50]
  GI50: 12.2 µM (inactive)
[51]
  GI50: 17.9 µM (inactive)

## COc1ccc2c(ccc3c(COC(=O)NC(C)C)c(COC(=O)NC(C)C)n(C)c32)c1
[58]
  GI50: 4.6 µM (inactive)
[1]
  GI50: 11.5 µM (inactive)
[2]
  GI50: 6.08 µM (inactive)
[3]
  GI50: 5.9 µM (inactive)
[4]
  GI50: 11.9 µM (inactive)
[5]
  GI50: 9.79 µM (inactive)
[6]
  GI50: 5.01 µM (inactive)
[7]
  GI50: 10.8 µM (inactive)
[52]
  GI50: 4.62 µM (inactive)
[8]
  GI50: 12.7 µM (inactive)
[9]
  GI50: 13.2 µM (inactive)
[53]
  GI50: 9.79 µM
[10]
  GI50: 11.2 µM (inactive)
[11]
  GI50: 12.7 µM (inactive)
[12]
  GI50: 12.3 µM (inactive)
[13]
  GI50: 4.99 µM (inactive)
[14]
  GI50: 9.06 µM (inactive)
[15]
  GI50: 3.21 µM (inactive)
[16]
  GI50: 17.1 µM (inactive)
[17]
  GI50: 11.5 µM (inactive)
[18]
  GI50: 11.1 µM (inactive)
[19]
  GI50: 9.02 µM (inactive)
[54]
  GI50: 7.33 µM (inactive)
[20]
  GI50: 0.655 µM (active)
[21]
  GI50: 2.11 µM (inactive)
[56]
  GI50: 0.414 µM (active)
[22]
  GI50: 14.2 µM (inactive)
[23]
  GI50: 3.26 µM (inactive)
[24]
  GI50: 11.2 µM (inactive)
[25]
  GI50: 7.74 µM (inactive)
[26]
  GI50: 6.04 µM (inactive)
[27]
  GI50: 16.3 µM (inactive)
[28]
  GI50: 13.7 µM (inactive)
[29]
  GI50: 3.08 µM (inactive)
[30]
  GI50: 4.42 µM (inactive)
[31]
  GI50: 3.34 µM (inactive)
[32]
  GI50: 10 µM (inactive)
[33]
  GI50: 7.52 µM (inactive)
[34]
  GI50: 16.7 µM (inactive)
[35]
  GI50: 2.54 µM (inactive)
[36]
  GI50: 16.4 µM (inactive)
[37]
  GI50: 11.3 µM (inactive)
[38]
  GI50: 3.5 µM (inactive)
[39]
  GI50: 8.79 µM (inactive)
[40]
  GI50: 5.19 µM (inactive)
[41]
  GI50: 4.13 µM (inactive)
[42]
  GI50: 5.82 µM (inactive)
[43]
  GI50: 12.4 µM (inactive)
[44]
  GI50: 15.1 µM (inactive)
[47]
  GI50: 4.75 µM (inactive)
[48]
  GI50: 2.36 µM (inactive)
[49]
  GI50: 10.8 µM (inactive)
[50]
  GI50: 5.98 µM (inactive)
[51]
  GI50: 1.81 µM (inactive)
